Assay results from patent US20250042884A1, “3-ARYLOXYL-3-FIVE-MEMBERED HETEROARYL PROPYLAMINE COMPOUND AND USE THEREOF” (Shanghai Leado Pharmatech Co. Ltd., priority 2018, published 2025).

Key:
[1] = target: TRPA1 (Mus musculus (Mouse), UniProt Q8BLA8); assay: Manual patch clamp test of TRPA1 inhibitory activity; type: cell-based; settings: FIG. 2
Description: The TRPA1 inhibitory activity of compound I-1 was evaluated by manual patch clamp test method.

[2] = tested on: SH-SY5Y cells; assay: Cytotoxicity test (CCK-8), neurotoxicity; type: cell-based; settings: Homo sapiens, 72 h
Description: In this example, hepatotoxicity and neurotoxicity of compound I-1 and S-duloxetine were detected.
HepG-2 and SH-SY5Y cells were placed in 10 cm dish and cultured at 37° C., 5% CO2 in a cell incubator. Trypsin was used to digest and resuspend cells and cells were counted. The cells were transferred to 96-well plate with 8000 cells in a well (100 μl/well), cultured at 37° C., 5% CO2 in a cell incubator for 24 hrs. A serial of gradient concentration dilutions of compound I-1 (prepared in example 2 of the present invention) with 2-fold dilution were prepared, and the system was 100 μL/well. The supernatant of cell culture system in the 96-well plate was removed on the first day, and fresh-prepared drug concentration system was add into culture plate wells (duplicate wells were set). The cells were cultured at 37° C., 5% CO2 in a cell incubator for 72 h. […] Microplate reader was used to measure the absorbance at 450 nm. Data was processed to calculate cytotoxicity, and IC50 was calculated by GraphPad Prism. […]
A (Dosing): the absorbance of wells containing cells, CCK-8 solution and drug solution.
A (control): the absorbance of wells containing medium and CCK-8 solution and without cells.
A (0 Dosing): the absorbance of wells containing cells and CCK-8 solution but without drug solution […]

[3] = tested on: SD rats; assay: Rat SNL model, mechanical allodynia test (nerve pain); type: in vivo; settings: 1 h after administration, 10 mg/kg oral, hydrochloride salt; control group 3.967 ± 0.775
Description: Male SPF grade SD rats, weighed 150 g-180 g, were selected. Aseptic operation during surgery was performed. The animals were anesthetized with sodium pentobarbital (50 mg/kg, intraperitoneal injection). The surgical area of animal waist was shaved and the skin was disinfected three times with iodophor and 70% ethanol. After the skin was dried, the operation was started. Surgical knife was used to make a longitudinal incision at the back of the sacrum of the animal waist to expose the left paraspinal muscles, and stretcher was used to separate muscle tissue to expose the spine. The left spinal nerves L5 and L6 were separated and ligated with a 6-0 silk thread, and the wound was sutured. After the operation, the animals were placed on electrothermal pad, and 5 mL of saline was injected subcutaneously to prevent dehydration. After the animals were fully awakened and could move around freely, the animals were put back in the cage.
After the operation, the animals were adapted in the experimental environment for 15min/day for 3 days.
The animals were weighed to calculate the dose. […] After administration, mechanical allodynia test was performed. The rat was individually placed in a plexiglass box with a grid on the bottom of the box to ensure that the rat claw could be tested. The rats were allowed to adapt the environment for 15 min before test. After the adaptation was completed, the test fiber was used to test the center of the left hind claw of the rat. The test fiber comprises 8 test strengths: 3.61 (0.4 g), 3.84 (0.6 g), 4.08 (1 g), 4.31 (2 g), 4.56 (4 g), 4.74 (6 g), 4.93 (8 g), and 5.18 (15 g). […] During the test, rapid withdrawal of animal claw was recorded as pain response. When the test fiber was removed from animal skin, the withdrawal of animal claw was also recorded as pain response. If animal moved, the pain response was not recorded, and the test was repeated. […]
Mechanical allodynia was expressed as withdrawal threshold (PWT) in rat behavioral test, which was calculated with the following formula: […]

[4] = tested on: Sprague-Dawley rats; assay: Rat hot plate pain model (acute pain); type: in vivo; settings: 30 mg/kg intraperitoneal, hydrochloride salt
Description: Sprague-Dawley male, mature and unmated rats were placed at hot and cold plate (product model: PE34, US IITC) with constant 53±0.1° C. Mice with painful response such as licking claw, shaking claw or slightly jumping within 10-30 s were selected, and mice which evaded and jumped were abandoned. […] The test compound was freshly prepared on the day of administration. 0.9% NaCl physiological saline solution was prepared as solvent for later use. Appropriate amount of test compound was added into required volume of physiological saline and fully suspended, and the concentration of prepared drug was 1 mg/ml. […] After administration, the latency of heat pain was measured at 0.5 h, 1 h and 2 h after administration. In order to prevent animals from being scalded on the hot plate, the maximum incubation time was set to 30 s. Maximum possible effect (MPE) % was used to evaluate analgesic effect of each compound, i.e., MPE %=[(Post drug latency−baseline latency)/(30−baseline latency)]×100. MPE % at different time points was recorded.

[5] = tested on: C57BL/6 mice; assay: Mice formalin pain model (acute and inflammatory pain); type: in vivo; settings: for Licking claw time (s) in phase II (10-60 min): hydrochloride salt, blank vehicle 349.55 ± 43.09
Text: 150 C57BL/6 mice (male, 9-week aged) were randomly divided into 15 groups, (each group had 10 mice) for the analgesic activity test of 3 compounds in the mice formalin pain model respectively: the compound I-1 group (compound I-1 prepared in Example 2 whose hydrochloride salt was used in the experiment), the S-duloxetine group (its hydrochloride salt was used in the experiment) and the compound C1 group (the compound C1 prepared in Comparative Example 1, whose hydrochloride salt was used in the experiment). Before the start of experiments, the mice were allowed to adapt to the experimental environment for 72 h with free feeding and drinking water. The test drugs were administrated by intraperitoneal injection at a dosage as follows:
Compound I-1 group: blank vehicle (blank saline control), 0.1 mg/kg, 0.5 mg/kg, 1 mg/kg, 5 mg/kg and 10 mg/kg;
S-duloxetine group: blank vehicle (blank saline control), 1 mg/kg, 5 mg/kg, 10 mg/kg and 20 mg/kg;
Compound C1 group: blank vehicle (blank saline control), 0.1 mg/kg, 0.5 mg/kg, 1 mg/kg, 5 mg/kg and 10 mg/kg.
After administration, the mice were placed in a transparent, ventilated plexiglass cylinder for 1 h, and then 20 μl of 4% formalin solution was injected into the left hind plantar of mice of each group by microinjector, claw pain response in mice were real-time recorded by a mini-camera. The time length of licking left claw were used as an indicator of pain response, licking time in 0-10 min (phase I) and 10-60 min (phase II) were observed and recorded, and the statistical analysis was conducted. The half effective dose (ED50) of 3 compounds were calculated: ED50 referred to the dose of the drug which decreased licking time by half as compared with the blank control group. The smaller the ED50 value was, the lower the effective analgesic dose of the compound was and the better the analgesic effect was.

[6] = tested on: ICR mice; assay: Mice acetic acid writhing pain model (visceral and inflammatory pain); type: in vivo; settings: for number of appearance of writhing reactions (visceral pain) within 30 min: 1 h before acetic acid, saline group 49 times
Description: Male ICR mice, 22-25 g, were fasted but allowed to drink water freely for 2 h before administration. All ICR mice were weighed and grouped randomly, each group had >10 animals. […] The drug was administrated by gavage based on the weight of mice. 1.5% acetic acid solution (0.1 ml/10 g) was injected intraperitoneally 1 h after administration, and the number of times of visceral pain in each group was observed within 30 min. When concave abdomen, stretched trunk and hind claw, and high buttocks appeared, one number point was recorded. Finally, the number of appearance of the above phenomenon was counted within 30 minutes.

Sequence of TRPA1 (Q8BLA8 whole entry): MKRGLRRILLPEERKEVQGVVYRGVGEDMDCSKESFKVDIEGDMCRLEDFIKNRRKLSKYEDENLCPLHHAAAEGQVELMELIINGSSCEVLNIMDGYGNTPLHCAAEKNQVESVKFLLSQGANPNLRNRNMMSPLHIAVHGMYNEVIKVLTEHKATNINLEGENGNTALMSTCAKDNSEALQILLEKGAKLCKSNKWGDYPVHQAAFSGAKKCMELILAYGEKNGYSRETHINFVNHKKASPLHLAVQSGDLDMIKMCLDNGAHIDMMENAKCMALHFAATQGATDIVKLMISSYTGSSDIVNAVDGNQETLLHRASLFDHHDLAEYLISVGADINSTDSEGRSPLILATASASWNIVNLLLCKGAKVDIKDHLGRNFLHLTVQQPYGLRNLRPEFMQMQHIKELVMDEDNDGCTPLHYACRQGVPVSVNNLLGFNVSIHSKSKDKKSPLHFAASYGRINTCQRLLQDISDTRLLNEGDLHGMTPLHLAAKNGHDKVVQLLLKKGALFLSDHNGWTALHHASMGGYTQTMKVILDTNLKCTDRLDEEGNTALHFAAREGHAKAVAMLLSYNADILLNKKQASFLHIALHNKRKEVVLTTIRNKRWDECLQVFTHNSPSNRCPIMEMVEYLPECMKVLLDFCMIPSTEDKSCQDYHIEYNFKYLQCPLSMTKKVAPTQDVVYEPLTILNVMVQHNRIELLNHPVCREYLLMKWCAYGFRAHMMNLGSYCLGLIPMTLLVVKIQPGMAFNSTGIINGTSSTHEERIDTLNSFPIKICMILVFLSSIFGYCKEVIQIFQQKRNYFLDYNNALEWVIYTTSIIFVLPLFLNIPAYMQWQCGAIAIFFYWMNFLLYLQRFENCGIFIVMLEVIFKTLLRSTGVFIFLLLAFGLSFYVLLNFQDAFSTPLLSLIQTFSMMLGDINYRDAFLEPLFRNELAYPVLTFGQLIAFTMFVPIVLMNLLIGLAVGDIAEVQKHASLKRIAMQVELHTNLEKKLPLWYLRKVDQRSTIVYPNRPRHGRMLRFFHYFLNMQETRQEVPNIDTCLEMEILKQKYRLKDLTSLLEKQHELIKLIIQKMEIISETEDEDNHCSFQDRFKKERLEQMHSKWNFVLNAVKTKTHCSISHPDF

CNCC[C@@H](Oc1cccc2ccoc12)c1cccs1 [Compound I-1, (R)-3-(benzofuran-7-yloxy)-N-methyl-3-(thiophen-2-yl)propyl-1-amine]
IC50 [1]: 0.42 µM | IC50 [2]: ~101 µM | PWT(g), claw withdrawal threshold [3]: 7.869 ± 2.846 g | MPE % ([4]; 0.5 h after administration): 14.51 ± 6.87% | MPE % ([4]; 1 h after administration): 38.03 ± 5.66% | MPE % ([4]; 2 h after administration): 31.92 ± 6.79% | Licking claw time (s) in phase II (10-60 min) ([5]; 0.1 mg/kg intraperitoneal): 321.55 ± 47.75 s | decrease of licking time in phase II (10-60 min) compared with the blank vehicle ([5]; 0.5 mg/kg intraperitoneal): more than 50% | Licking claw time (s) in phase II (10-60 min) ([5]; 0.5 mg/kg intraperitoneal): 161.25 ± 30.83 s | Licking claw time (s) in phase II (10-60 min) ([5]; 1 mg/kg intraperitoneal): 131.28 ± 23.99 s | Licking claw time (s) in phase II (10-60 min) ([5]; 5 mg/kg intraperitoneal): 87.85 ± 25.15 s | Licking claw time (s) in phase II (10-60 min) ([5]; 10 mg/kg intraperitoneal): 99.08 ± 19.73 s | ED50 times stronger than S-duloxetine ([5]; phase II, mice formalin model): 30.8 times | ED50 times stronger than compound C1 ([5]; phase II, mice formalin model): 8.5 times | number of appearance of writhing reactions (visceral pain) within 30 min ([6]; 5 mg/kg by gavage): 19 times | number of visceral pain lower than the saline control group ([6]; 5 mg/kg by gavage, 19 times vs 49 times): 50% | number of appearance of writhing reactions (visceral pain) within 30 min ([6]; 10 mg/kg by gavage): 16 times
